What was measured:
Test in all cases: KinomeScan profiling
Assay type in all cases: binding
QSK = QSK (Homo sapiens, UniProt Q9Y2K2); details: read-out: % control
In short: (§1)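 1 μM cpd in DMSO; 468-kinase panel; readout RLU. % ctrl = (cpd − pos ctrl)/(neg ctrl − pos ctrl) ×100. Pos ctrl = 0%, DMSO = 100%. Hit cut-off <35%.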

OSR1 = OSR1 (Homo sapiens, UniProt O95747); details: OSR1, 1 μM; read-out: % control
In short: as §1

S6K1 = target: T1, S6K1 (Homo sapiens, UniProt P23443); details: S6K1, 1 μM; read-out: % control
T1 construct: purchased KinomeScan® (panel service)
In short: as §1

MEK4 = target: T2, MEK4 (Homo sapiens, UniProt P45985); details: MEK4, 1 μM; read-out: % control
T2 sequence (P45985 1-399): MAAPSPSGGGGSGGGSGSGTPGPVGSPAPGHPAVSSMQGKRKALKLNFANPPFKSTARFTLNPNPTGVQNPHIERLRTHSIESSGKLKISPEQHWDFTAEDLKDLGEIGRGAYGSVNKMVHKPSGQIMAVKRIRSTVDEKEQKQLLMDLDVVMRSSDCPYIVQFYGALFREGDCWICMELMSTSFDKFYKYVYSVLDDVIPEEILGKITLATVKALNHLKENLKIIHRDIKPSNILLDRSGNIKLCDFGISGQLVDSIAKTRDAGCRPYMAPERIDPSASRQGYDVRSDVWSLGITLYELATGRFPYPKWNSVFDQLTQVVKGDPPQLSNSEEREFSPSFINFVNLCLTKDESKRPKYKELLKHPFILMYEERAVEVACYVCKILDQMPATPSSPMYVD
In short: as §1

IKK-alpha = target: T3, IKK-alpha (Homo sapiens, UniProt O15111); details: read-out: % control
T3 sequence (O15111 1-745): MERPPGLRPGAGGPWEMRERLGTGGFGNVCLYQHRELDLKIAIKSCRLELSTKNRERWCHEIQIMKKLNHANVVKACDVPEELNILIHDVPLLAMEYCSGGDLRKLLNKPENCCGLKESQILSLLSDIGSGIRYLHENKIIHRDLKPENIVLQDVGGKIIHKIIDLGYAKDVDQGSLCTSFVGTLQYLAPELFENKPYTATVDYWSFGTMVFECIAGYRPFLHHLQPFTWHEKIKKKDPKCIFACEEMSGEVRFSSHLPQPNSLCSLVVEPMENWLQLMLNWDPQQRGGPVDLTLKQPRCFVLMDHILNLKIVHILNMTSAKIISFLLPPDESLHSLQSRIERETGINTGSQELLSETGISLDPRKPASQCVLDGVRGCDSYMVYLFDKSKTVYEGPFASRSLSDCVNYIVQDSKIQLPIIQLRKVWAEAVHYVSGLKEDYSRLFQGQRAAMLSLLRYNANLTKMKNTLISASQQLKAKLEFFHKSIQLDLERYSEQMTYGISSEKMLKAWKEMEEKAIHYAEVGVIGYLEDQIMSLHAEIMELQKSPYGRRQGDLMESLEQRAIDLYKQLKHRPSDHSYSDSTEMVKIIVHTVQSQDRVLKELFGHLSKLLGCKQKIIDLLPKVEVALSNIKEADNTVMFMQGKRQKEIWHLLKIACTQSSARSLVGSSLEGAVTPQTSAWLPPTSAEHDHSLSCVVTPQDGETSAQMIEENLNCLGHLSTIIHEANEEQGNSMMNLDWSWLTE
In short: as §1

[1] = target: T4, ABL1(F317L)-nonphosphorylated (Homo sapiens, UniProt P00519, F317L); details: read-out: % control
T4 construct: purchased KinomeScan®
In short: as §1

NEK1 = target: T5, NEK1 (Homo sapiens, UniProt Q96PY6); details: NEK1, 1 μM; read-out: % control
T5 sequence (Q96PY6 1-1258): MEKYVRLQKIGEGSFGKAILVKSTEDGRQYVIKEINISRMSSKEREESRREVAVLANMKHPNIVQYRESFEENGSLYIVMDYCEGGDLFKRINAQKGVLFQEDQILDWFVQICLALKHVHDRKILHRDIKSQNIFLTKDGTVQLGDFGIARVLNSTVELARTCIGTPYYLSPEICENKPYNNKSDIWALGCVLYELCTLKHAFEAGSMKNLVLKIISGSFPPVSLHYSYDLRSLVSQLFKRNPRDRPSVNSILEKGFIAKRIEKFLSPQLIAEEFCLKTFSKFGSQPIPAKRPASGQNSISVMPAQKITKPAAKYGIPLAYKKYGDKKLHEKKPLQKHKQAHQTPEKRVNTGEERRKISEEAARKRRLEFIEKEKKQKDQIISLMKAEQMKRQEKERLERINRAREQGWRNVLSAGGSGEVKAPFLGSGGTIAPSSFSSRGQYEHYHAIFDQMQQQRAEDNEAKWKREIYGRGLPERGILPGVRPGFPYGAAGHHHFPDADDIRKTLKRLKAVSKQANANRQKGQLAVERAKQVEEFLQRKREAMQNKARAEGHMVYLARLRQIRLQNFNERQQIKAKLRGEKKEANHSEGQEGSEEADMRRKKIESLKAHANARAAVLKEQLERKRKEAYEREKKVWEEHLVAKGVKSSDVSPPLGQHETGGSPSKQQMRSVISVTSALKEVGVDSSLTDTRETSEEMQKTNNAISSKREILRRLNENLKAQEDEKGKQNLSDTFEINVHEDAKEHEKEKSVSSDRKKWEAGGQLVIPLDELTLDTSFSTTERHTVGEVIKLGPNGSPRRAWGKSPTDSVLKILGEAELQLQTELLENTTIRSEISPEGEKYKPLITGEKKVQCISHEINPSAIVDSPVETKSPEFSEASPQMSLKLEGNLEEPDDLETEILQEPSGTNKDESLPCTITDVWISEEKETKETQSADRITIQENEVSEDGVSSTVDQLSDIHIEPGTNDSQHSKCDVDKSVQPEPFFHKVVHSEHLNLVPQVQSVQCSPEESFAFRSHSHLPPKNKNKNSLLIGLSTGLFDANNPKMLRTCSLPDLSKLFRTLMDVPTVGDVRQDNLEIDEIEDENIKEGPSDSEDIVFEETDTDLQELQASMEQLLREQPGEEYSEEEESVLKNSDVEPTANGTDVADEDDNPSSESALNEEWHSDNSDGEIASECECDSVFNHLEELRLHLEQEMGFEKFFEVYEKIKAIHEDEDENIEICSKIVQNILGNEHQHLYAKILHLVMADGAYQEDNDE
In short: as §1

OSR1, sequence (O95747 whole entry): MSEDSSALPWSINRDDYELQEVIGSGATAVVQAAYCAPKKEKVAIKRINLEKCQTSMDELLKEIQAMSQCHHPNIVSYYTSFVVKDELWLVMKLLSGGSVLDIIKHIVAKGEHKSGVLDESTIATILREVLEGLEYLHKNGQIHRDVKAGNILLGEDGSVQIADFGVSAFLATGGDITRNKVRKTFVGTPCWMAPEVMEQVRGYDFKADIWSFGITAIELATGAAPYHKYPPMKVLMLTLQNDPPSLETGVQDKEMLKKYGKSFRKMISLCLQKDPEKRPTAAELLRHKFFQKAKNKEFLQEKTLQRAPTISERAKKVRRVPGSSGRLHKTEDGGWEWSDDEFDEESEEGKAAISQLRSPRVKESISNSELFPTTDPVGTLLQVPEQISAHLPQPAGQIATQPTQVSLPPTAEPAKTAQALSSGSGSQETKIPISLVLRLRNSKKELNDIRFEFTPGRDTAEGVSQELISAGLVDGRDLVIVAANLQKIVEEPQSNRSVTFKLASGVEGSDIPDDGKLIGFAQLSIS
QSK, sequence (Q9Y2K2 whole entry): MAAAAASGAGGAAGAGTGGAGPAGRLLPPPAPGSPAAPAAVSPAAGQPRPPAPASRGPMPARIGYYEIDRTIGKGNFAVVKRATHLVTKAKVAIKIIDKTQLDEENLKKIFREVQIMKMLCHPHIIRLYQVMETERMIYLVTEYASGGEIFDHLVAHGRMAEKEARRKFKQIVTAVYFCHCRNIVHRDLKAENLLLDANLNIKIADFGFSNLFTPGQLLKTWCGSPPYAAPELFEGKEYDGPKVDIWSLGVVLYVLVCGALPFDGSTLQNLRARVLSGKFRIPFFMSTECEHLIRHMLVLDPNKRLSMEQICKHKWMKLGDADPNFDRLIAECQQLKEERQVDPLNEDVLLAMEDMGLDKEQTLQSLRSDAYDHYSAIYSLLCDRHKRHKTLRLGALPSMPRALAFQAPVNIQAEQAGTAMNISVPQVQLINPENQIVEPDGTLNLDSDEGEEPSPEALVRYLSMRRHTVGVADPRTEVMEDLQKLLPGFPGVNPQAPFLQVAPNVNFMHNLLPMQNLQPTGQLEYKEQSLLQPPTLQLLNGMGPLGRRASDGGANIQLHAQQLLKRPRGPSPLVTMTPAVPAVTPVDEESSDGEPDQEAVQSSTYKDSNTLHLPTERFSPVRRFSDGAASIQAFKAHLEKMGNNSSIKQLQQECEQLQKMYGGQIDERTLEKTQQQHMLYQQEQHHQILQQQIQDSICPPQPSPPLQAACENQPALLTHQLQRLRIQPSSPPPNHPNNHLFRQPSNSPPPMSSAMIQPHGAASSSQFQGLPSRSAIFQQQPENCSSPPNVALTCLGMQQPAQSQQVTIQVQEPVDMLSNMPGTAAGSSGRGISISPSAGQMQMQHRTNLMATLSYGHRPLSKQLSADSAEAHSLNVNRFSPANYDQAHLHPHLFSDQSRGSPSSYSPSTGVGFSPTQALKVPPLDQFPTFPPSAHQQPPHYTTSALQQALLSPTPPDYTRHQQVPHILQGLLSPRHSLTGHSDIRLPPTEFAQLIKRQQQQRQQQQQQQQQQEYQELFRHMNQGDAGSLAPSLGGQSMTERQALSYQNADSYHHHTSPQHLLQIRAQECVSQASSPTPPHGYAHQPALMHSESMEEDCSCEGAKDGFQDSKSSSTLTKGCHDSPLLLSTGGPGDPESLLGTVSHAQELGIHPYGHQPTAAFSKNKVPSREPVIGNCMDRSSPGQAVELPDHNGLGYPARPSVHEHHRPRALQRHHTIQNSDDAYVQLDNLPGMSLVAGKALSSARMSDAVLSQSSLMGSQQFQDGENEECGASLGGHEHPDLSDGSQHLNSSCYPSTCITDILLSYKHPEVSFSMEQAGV
T1 sequence (P23443 whole entry): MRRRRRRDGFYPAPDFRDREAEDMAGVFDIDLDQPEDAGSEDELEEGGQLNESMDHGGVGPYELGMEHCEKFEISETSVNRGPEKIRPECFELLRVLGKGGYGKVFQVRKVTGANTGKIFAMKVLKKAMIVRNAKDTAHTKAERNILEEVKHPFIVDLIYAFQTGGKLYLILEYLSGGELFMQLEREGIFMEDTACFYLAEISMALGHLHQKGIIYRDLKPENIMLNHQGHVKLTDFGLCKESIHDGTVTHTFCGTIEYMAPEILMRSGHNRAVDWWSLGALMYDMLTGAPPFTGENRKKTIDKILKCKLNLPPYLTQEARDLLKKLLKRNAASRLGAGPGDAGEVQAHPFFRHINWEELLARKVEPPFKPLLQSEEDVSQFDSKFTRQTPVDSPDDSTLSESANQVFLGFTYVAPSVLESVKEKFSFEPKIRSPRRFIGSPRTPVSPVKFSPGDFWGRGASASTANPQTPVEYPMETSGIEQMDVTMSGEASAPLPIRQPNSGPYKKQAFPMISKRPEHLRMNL
T4 sequence (P00519 whole entry F317L): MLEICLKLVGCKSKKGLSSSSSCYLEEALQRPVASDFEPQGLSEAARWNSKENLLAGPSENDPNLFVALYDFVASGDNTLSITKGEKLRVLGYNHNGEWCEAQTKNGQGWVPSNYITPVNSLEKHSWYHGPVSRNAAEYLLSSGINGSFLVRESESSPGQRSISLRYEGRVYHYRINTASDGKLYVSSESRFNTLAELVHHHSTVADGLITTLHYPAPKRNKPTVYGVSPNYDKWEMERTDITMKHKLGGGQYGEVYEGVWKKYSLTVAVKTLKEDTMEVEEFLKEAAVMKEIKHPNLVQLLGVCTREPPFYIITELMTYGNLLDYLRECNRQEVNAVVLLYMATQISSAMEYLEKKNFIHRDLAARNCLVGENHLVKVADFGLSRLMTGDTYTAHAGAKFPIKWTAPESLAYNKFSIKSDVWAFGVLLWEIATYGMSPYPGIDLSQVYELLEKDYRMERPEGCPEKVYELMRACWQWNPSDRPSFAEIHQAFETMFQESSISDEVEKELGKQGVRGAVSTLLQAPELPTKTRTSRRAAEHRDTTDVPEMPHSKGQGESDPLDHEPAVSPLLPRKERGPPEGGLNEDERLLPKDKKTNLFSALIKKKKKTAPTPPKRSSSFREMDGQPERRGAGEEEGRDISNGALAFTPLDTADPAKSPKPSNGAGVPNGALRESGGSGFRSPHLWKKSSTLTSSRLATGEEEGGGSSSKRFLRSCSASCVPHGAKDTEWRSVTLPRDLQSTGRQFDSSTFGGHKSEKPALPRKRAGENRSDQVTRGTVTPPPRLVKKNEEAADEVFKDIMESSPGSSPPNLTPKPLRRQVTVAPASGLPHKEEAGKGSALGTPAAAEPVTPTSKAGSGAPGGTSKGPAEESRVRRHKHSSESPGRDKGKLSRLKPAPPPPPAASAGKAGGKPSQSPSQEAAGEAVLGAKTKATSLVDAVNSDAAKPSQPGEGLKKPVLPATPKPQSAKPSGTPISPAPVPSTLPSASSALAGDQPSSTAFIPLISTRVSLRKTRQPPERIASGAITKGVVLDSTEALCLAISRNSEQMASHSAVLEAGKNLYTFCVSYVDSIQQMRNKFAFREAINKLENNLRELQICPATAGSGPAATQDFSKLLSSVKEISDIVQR

O=C(c1ccc(-c2cnc3[nH]cc(Cl)c3c2NC2CCCC2)cc1)N1CCC(N2CCOCC2)CC1 [Compound 101, (4-(3-chloro-4-(cyclopentylamino)-1H-pyrrolo[2,3-b]pyridin-5-yl)phenyl)(4-morpholinopiperidin-1-yl)methanone]
remaining binding at 1 µM (QSK): 97%
remaining binding at 1 µM (OSR1): 100%
remaining binding at 1 µM (S6K1): 100%
remaining binding at 1 µM (MEK4): 28%
remaining binding at 1 µM (IKK-alpha): 49%
remaining binding at 1 µM [1]: 10%
remaining binding at 1 µM (NEK1): 100%

CNc1c(-c2cnn([C@H]3CCN(C(C)=O)C[C@@H]3F)c2)cnc2[nH]cc(Cl)c12 [Compound 77, 1-((3S,4S)-4-(4-(3-chloro-4-(methylamino)-1H-pyrrolo[2,3-b]pyridin-5-yl)-1H-pyrazol-1-yl)-3-fluoropiperidin-1-yl)ethan-1-one]
remaining binding at 1 µM (QSK): 76%
remaining binding at 1 µM (OSR1): 75%
remaining binding at 1 µM (S6K1): 50%
remaining binding at 1 µM (MEK4): 45%
remaining binding at 1 µM (IKK-alpha): 17%
remaining binding at 1 µM [1]: 95%
remaining binding at 1 µM (NEK1): 96%

CNc1c(-c2ccc(C(=O)N3CCC(N4CCOCC4)CC3)cc2)cnc2[nH]cc(Cl)c12 [Compound 96, (4-(3-chloro-4-(methylamino)-1H-pyrrolo[2,3-b]pyridin-5-yl)phenyl)(4-morpholinopiperidin-1-yl)methanone]
remaining binding at 1 µM (QSK): 76%
remaining binding at 1 µM (OSR1): 66%
remaining binding at 1 µM (S6K1): 87%
remaining binding at 1 µM (MEK4): 7.3%
remaining binding at 1 µM (IKK-alpha): 14%
remaining binding at 1 µM [1]: 100%
remaining binding at 1 µM (NEK1): 100%

— patent publication US12275731B2, “Azaindole inhibitors of wild-type and mutant forms of LRRK2” (DANA-FARBER CANCER INSTITUTE, INC., priority 2018, dated 2025)
